Results taken from the CheMixHub ionic liquid set.

Test: xn = mol fraction of the nth substance listed

CCCC[n+]1ccn(C)c1.F[B-](F)(F)F + O
Conditions | electrical conductivity [S/m] | viscosity [mPa·s]
308.15 K, 100 kPa, x1 = 7.98e-05 | 0.0658 | –
308.15 K, 100 kPa, x1 = 0.0003603 | – | 0.751
308.15 K, 100 kPa, x1 = 0.0003729 | – | 0.751
308.15 K, 100 kPa, x1 = 0.0007203 | – | 0.789
308.15 K, 100 kPa, x1 = 0.0007257 | – | 0.789
308.15 K, 100 kPa, x1 = 0.00108 | – | 0.83
308.15 K, 100 kPa, x1 = 0.0011 | – | 0.83
308.15 K, 100.3 kPa, x1 = 0.0005439 | – | 0.7296
308.15 K, 100.3 kPa, x1 = 0.0009901 | – | 0.7358
308.15 K, 100.3 kPa, x1 = 0.00501 | – | 0.7841
308.15 K, 100.3 kPa, x1 = 0.006973 | – | 0.8048
308.15 K, 100.3 kPa, x1 = 0.009052 | – | 0.835
308.15 K, 100.3 kPa, x1 = 0.01199 | – | 0.8681
308.15 K, 100.3 kPa, x1 = 0.01499 | – | 0.9047
308.15 K, 100.3 kPa, x1 = 0.017 | – | 0.9282
308.15 K, 101 kPa, x2 = 0.1002 | – | 38.1
308.15 K, 101 kPa, x2 = 0.209 | – | 28.4
308.15 K, 101 kPa, x2 = 0.7002 | 4.24 | –
313 K, 100 kPa, x1 = 0.6023 | – | 13.87
313.15 K, 100 kPa, x1 = 0.0003603 | – | 0.693
313.15 K, 100 kPa, x1 = 0.0003729 | – | 0.693
313.15 K, 100 kPa, x1 = 0.0007203 | – | 0.736
313.15 K, 100 kPa, x1 = 0.0007257 | – | 0.736
313.15 K, 100 kPa, x1 = 0.00108 | – | 0.779
313.15 K, 100 kPa, x1 = 0.0011 | – | 0.779
313.15 K, 100.3 kPa, x1 = 0.0005439 | – | 0.6614
313.15 K, 100.3 kPa, x1 = 0.0009901 | – | 0.6672
313.15 K, 100.3 kPa, x1 = 0.00501 | – | 0.7105
313.15 K, 100.3 kPa, x1 = 0.006973 | – | 0.7302
313.15 K, 100.3 kPa, x1 = 0.009052 | – | 0.7571
313.15 K, 100.3 kPa, x1 = 0.01199 | – | 0.7861
313.15 K, 100.3 kPa, x1 = 0.01499 | – | 0.8177
313.15 K, 100.3 kPa, x1 = 0.017 | – | 0.8403
313.15 K, 101 kPa, x2 = 0 | – | 46.5
313.15 K, 101 kPa, x2 = 0.1014 | 0.991 | –
313.15 K, 101 kPa, x2 = 0.1135 | – | 35.01
313.15 K, 101 kPa, x2 = 0.5014 | – | 9
313.15 K, 101 kPa, x2 = 0.6004 | – | 7.4
313.15 K, 101 kPa, x2 = 0.8493 | 6.99 | –
313.15 K, 101 kPa, x2 = 0.9744 | 5.57 | –
318.15 K, 100 kPa, x1 = 0.0003603 | – | 0.638
318.15 K, 100 kPa, x1 = 0.0003729 | – | 0.638
318.15 K, 100 kPa, x1 = 0.0007203 | – | 0.681
318.15 K, 100 kPa, x1 = 0.0007257 | – | 0.681
318.15 K, 100 kPa, x1 = 0.00108 | – | 0.725
318.15 K, 100 kPa, x1 = 0.0011 | – | 0.725
318.15 K, 100.3 kPa, x1 = 0.0005439 | – | 0.6041
318.15 K, 100.3 kPa, x1 = 0.0009901 | – | 0.6099
318.15 K, 100.3 kPa, x1 = 0.003018 | – | 0.6311
318.15 K, 100.3 kPa, x1 = 0.00501 | – | 0.6489
318.15 K, 100.3 kPa, x1 = 0.006973 | – | 0.6654
318.15 K, 100.3 kPa, x1 = 0.009052 | – | 0.69
318.15 K, 100.3 kPa, x1 = 0.01199 | – | 0.7155
318.15 K, 100.3 kPa, x1 = 0.01499 | – | 0.7441
318.15 K, 100.3 kPa, x1 = 0.017 | – | 0.7642
318.15 K, 101 kPa, x2 = 0.3058 | 2 | –
318.15 K, 101 kPa, x2 = 0.6004 | – | 6.4
323.15 K, 101 kPa, x2 = 0.06153 | – | 29.13
323.15 K, 101 kPa, x2 = 0.209 | – | 16.7
323.15 K, 101 kPa, x2 = 0.4001 | – | 8.4
323.15 K, 101 kPa, x2 = 0.8493 | 7.98 | –
323.15 K, 101 kPa, x2 = 0.9496 | 8.04 | –
323.15 K, 101 kPa, x2 = 0.9744 | 6.74 | –
333.15 K, 101 kPa, x2 = 0 | – | 24.86
333.15 K, 101 kPa, x2 = 0.1135 | – | 18.67
343.15 K, 101 kPa, x2 = 0.2984 | – | 6.5
343.15 K, 101 kPa, x2 = 0.6004 | – | 3.75
343.15 K, 101 kPa, x2 = 0.7 | – | 2.73
343.15 K, 101 kPa, x2 = 0.8999 | – | 1.07
353.15 K, 101 kPa, x2 = 0.1002 | – | 8.6
353.15 K, 101 kPa, x2 = 0.3977 | – | 5.98
353.15 K, 101 kPa, x2 = 0.6004 | – | 3.19
363.15 K, 101 kPa, x2 = 0.03402 | – | 11
363.15 K, 101 kPa, x2 = 0.06153 | – | 10.4
363.15 K, 101 kPa, x2 = 0.2802 | – | 6.65
373.15 K, 101 kPa, x2 = 0 | – | 9.55
373.15 K, 101 kPa, x2 = 0.06153 | – | 8.6

electrical conductivity [S/m], 101 kPa, frequency 6e-05 MHz
Conditions | 308.2 K | 313.2 K | 318.2 K | 323.2 K | 333.2 K | 343.2 K | 353.2 K
x2 = 0.2 | 1.3 | 1.45 | 1.59 | 1.75 | 2.1 | 2.49 | 2.94
x2 = 0.4 | 2.04 | 2.27 | 2.53 | 2.78 | 3.36 | 3.87 | 4.56
x2 = 0.6 | 3.28 | 3.69 | 4.13 | 4.57 | 5.31 | 6.27 | 7.44
x2 = 0.8 | 5.28 | 5.9 | 6.55 | 7.22 | 8.54 | 9.89 | 11.5
